System: MOLM-13 tumors
Experiment: Efficacy (survival) in disseminated MOLM-13 (KMT2A-rearranged) model in NSG mice
Type: in vivo
Conditions: NSG mice bearing established MOLM-13 tumors, vs vehicle; Azacitidine 2 mg/kg ip QD × 7; Compound 51 2 mg/kg po QD × 28; n = 10
Description: 4) Efficacy of Menin-MLL Inhibitor in Combination with Azacitidine in MOLM-13 (KMT2A-Rearranged) Model in NSG Mice
Compound 51 was formulated in purified pyrogen-free deionized water, pH 4.0 and prepared to reach a total volume of 8 mL/kg. Doses were adjusted by individual body weight each day. Working stocks of Compound 51 were prepared once per week for each study and stored at 25° C.
Female NSG (NOD.Cg-Prkdc^scid Il2rg^tm1Wjl/SzJ) mice were used when they were approximately 6 to 8 weeks of age and weighed approximately 25 g. All animals could acclimate and recover from any shipping-related stress for a minimum of 7 days prior to experimental use. […]
Animals were monitored daily for clinical signs related to either compound toxicity or tumor burden (i.e., hind limb paralysis, lethargy, etc.).
For survival assessment, results were plotted as the percentage survival against days post tumor implant. […] Median survival was determined utilizing Kaplan-Meier survival analysis. The percent increased life span (ILS) was calculated as: ((median survival day of treated group−median survival day of control group)/median survival day of control group)×100. […]
Survival and body weight data were graphically represented utilizing Prism (Version 9). Statistical significance for body weights was evaluated as described above. […]

Q: For `CC(=O)N1CCC(CN2CC[C@@H](Cc3cn(-c4ccc(F)cc4C(=O)N(C)C(C)C)c4cncc(C)c34)C2)CC1` [Compound 51], which “% ILS (increased life span)” value is on record?
A: *5%

From patent US20260191835A1, “COMBINATIONS COMPRISING A MENIN-MLL INHIBITOR AND AT LEAST ONE OTHER THERAPEUTIC AGENT” (JANSSEN PHARMACEUTICA NV, priority 2022, published 2026)
